Data taken from the CheMixHub viscosity set.

Assay: xn = mol fraction of the nth substance listed

C=CC(=O)OC + CCCCCCC
viscosity [mPa·s], 100 kPa
Conditions	x1 = 0.1065	x1 = 0.2053	x1 = 0.3084	x1 = 0.4061	x1 = 0.5019	x1 = 0.6048	x1 = 0.703	x1 = 0.8014	x1 = 0.9456
303.15 K	0.367	0.361	0.36	0.362	0.367	0.375	0.387	0.402	0.426
308.15 K	0.337	0.333	0.332	0.336	0.343	0.353	0.365	0.381	0.406
313.15 K	0.329	0.326	0.325	0.326	0.332	0.341	0.352	0.366	0.388

CC(C)CO + CCCCCCC
303.15 K, 101.33 kPa
Conditions	viscosity [mPa·s]
x2 = 0.1513	1.552
x2 = 0.3016	1.023
x2 = 0.4515	0.724
x2 = 0.6022	0.562
x2 = 0.7374	0.478
x2 = 0.8984	0.421

CCCCCC + CCCCCCC
Conditions	viscosity [mPa·s]
298 K, 101.33 kPa, x2 = 0.1005	0.3132
298 K, 101.33 kPa, x2 = 0.1957	0.3202
298 K, 101.33 kPa, x2 = 0.3837	0.3365
298 K, 101.33 kPa, x2 = 0.508	0.3471
298 K, 101.33 kPa, x2 = 0.6023	0.3554
298 K, 101.33 kPa, x2 = 0.7154	0.3649
298 K, 101.33 kPa, x2 = 0.8009	0.3727
298 K, 101.33 kPa, x2 = 0.8944	0.3801
298.15 K, 101 kPa, x2 = 0.2069	0.3145
298.15 K, 101 kPa, x2 = 0.2091	0.315
298.15 K, 101 kPa, x2 = 0.2351	0.316
298.15 K, 101 kPa, x2 = 0.2355	0.316
298.15 K, 101 kPa, x2 = 0.2614	0.317
298.15 K, 101 kPa, x2 = 0.2637	0.317
298.15 K, 101 kPa, x2 = 0.2921	0.319
298.15 K, 101 kPa, x2 = 0.2929	0.319
298.15 K, 101 kPa, x2 = 0.3129	0.32
298.15 K, 101 kPa, x2 = 0.3245	0.3205
298.15 K, 101 kPa, x2 = 0.3582	0.323
298.15 K, 101 kPa, x2 = 0.3665	0.3245
298.15 K, 101 kPa, x2 = 0.3904	0.325
298.15 K, 101 kPa, x2 = 0.3907	0.325
298.15 K, 101 kPa, x2 = 0.4267	0.3275
298.15 K, 101 kPa, x2 = 0.4279	0.328
298.15 K, 101 kPa, x2 = 0.4662	0.331
298.15 K, 101 kPa, x2 = 0.4687	0.331
298.15 K, 101 kPa, x2 = 0.5072	0.3345
298.15 K, 101 kPa, x2 = 0.5084	0.3345
298.15 K, 101 kPa, x2 = 0.5516	0.339
298.15 K, 101 kPa, x2 = 0.5526	0.338
298.15 K, 101 kPa, x2 = 0.5986	0.344
298.15 K, 101 kPa, x2 = 0.5994	0.344
298.15 K, 101 kPa, x2 = 0.6496	0.35
298.15 K, 101 kPa, x2 = 0.6507	0.35
298.15 K, 101 kPa, x2 = 0.6856	0.3545
298.15 K, 101 kPa, x2 = 0.6881	0.355
298.15 K, 101 kPa, x2 = 0.7266	0.3595
298.15 K, 101 kPa, x2 = 0.728	0.36
298.15 K, 101.33 kPa, x1 = 0.1059	0.3792
298.15 K, 101.33 kPa, x1 = 0.2067	0.3658
298.15 K, 101.33 kPa, x1 = 0.302	0.358
298.15 K, 101.33 kPa, x1 = 0.406	0.3485
298.15 K, 101.33 kPa, x1 = 0.5051	0.3409
298.15 K, 101.33 kPa, x1 = 0.6064	0.3305
298.15 K, 101.33 kPa, x1 = 0.704	0.3227
298.15 K, 101.33 kPa, x1 = 0.8008	0.3123
298.15 K, 101.33 kPa, x1 = 0.8993	0.3075

CCOC(=O)CC + CCCCCCC
viscosity [mPa·s], 101.3 kPa
Conditions	308.15 K	318.15 K
x1 = 0.0514	0.356	0.325
x1 = 0.0967	0.36	0.329
x1 = 0.2165	0.369	0.341
x1 = 0.3027	0.376	0.35
x1 = 0.4024	0.386	0.36
x1 = 0.5033	0.396	0.372
x1 = 0.588	0.406	0.383
x1 = 0.7003	0.421	0.397
x1 = 0.7994	0.435	0.408
x1 = 0.9003	0.45	0.421
x1 = 0.9484	0.458	0.428

C=CC(=O)OC + CCCCCCCCCC
viscosity [mPa·s], 100 kPa
Conditions	x1 = 0.1092	x1 = 0.2047	x1 = 0.3019	x1 = 0.4034	x1 = 0.5015	x1 = 0.5969	x1 = 0.6987	x1 = 0.7998	x1 = 0.8966
303.15 K	0.733	0.683	0.638	0.595	0.561	0.532	0.506	0.483	0.462
308.15 K	0.668	0.625	0.585	0.548	0.519	0.495	0.474	0.456	0.437
313.15 K	0.644	0.604	0.566	0.53	0.501	0.478	0.457	0.438	0.42

CC(C)CO + CCCCCCCCCC
viscosity [mPa·s], 100 kPa
Conditions	x2 = 0.1004	x2 = 0.1999	x2 = 0.3	x2 = 0.3999	x2 = 0.5002	x2 = 0.5996	x2 = 0.7006	x2 = 0.8	x2 = 0.9
293.15 K	2.872	2.191	1.749	1.456	1.254	1.117	1.024	0.966	0.933
298.15 K	2.471	1.906	–	–	1.131	–	0.941	0.893	0.863
303.15 K	2.139	1.673	1.368	1.165	1.027	0.932	0.869	0.828	0.803
308.15 K	1.863	1.476	1.221	1.051	0.937	0.857	0.806	0.771	0.75
313.15 K	1.632	1.309	1.095	0.954	0.859	0.793	0.749	0.72	0.702
318.15 K	1.436	1.167	0.989	0.871	0.791	0.736	0.699	0.674	0.66
323.15 K	1.272	1.046	0.897	0.798	0.732	0.686	0.654	0.634	0.622

CCCCCC + CCCCCCCCCC
298.15 K, 101.33 kPa
Conditions	viscosity [mPa·s]
x1 = 0.1074	0.7809
x1 = 0.2074	0.7182
x1 = 0.3029	0.6515
x1 = 0.4046	0.5846
x1 = 0.5041	0.5315
x1 = 0.6061	0.4805
x1 = 0.7053	0.4337
x1 = 0.8034	0.3791
x1 = 0.9036	0.3365

C=CC(=O)OC + CCCCCCCCCCCC
viscosity [mPa·s], 100 kPa
Conditions	x1 = 0.0959	x1 = 0.1996	x1 = 0.3063	x1 = 0.4005	x1 = 0.5043	x1 = 0.603	x1 = 0.7008	x1 = 0.8015	x1 = 0.8993
303.15 K	1.129	1.019	0.916	0.831	0.745	0.67	0.601	0.54	0.486
308.15 K	1.017	0.918	0.825	0.751	0.674	0.611	0.554	0.502	0.458
313.15 K	0.963	0.867	0.779	0.709	0.638	0.58	0.528	0.478	0.438

CC(C)(C)c1ccccc1 + CCCCCCCCCCCC
viscosity [mPa·s], 102 kPa
Conditions	x1 = 0.1017	x1 = 0.2009	x1 = 0.2995	x1 = 0.4002	x1 = 0.5001	x1 = 0.5979	x1 = 0.699	x1 = 0.8	x1 = 0.9006
293.15 K	1.43	1.37	1.32	1.27	1.22	1.18	1.16	1.14	1.13
303.15 K	1.2	1.16	1.12	1.08	1.05	1.02	0.998	0.982	0.975
313.15 K	1.03	0.998	0.971	0.942	0.916	0.895	0.874	0.859	0.854
323.15 K	0.9	0.872	0.846	0.825	0.804	0.787	0.77	0.758	0.752

C=CC(=O)OC + CCCCCCCCCCCCC
viscosity [mPa·s], 100 kPa
Conditions	x1 = 0.1018	x1 = 0.1995	x1 = 0.3067	x1 = 0.4044	x1 = 0.5002	x1 = 0.6038	x1 = 0.7058	x1 = 0.8043	x1 = 0.9012
303.15 K	1.375	1.235	1.091	0.974	0.868	0.765	0.673	0.593	0.513
308.15 K	1.178	1.058	0.936	0.838	0.752	0.669	0.598	0.538	0.477
313.15 K	1.056	0.953	0.845	0.762	0.689	0.618	0.554	0.498	0.446

CCCCCCCCCCCCc1ccccc1 + CCCCCCCCCCCCCCCC
viscosity [mPa·s], 102 kPa
Conditions	x1 = 0.09264	x1 = 0.1868	x1 = 0.2826	x1 = 0.3803	x1 = 0.4789	x1 = 0.5793	x1 = 0.6819	x1 = 0.786	x1 = 0.892
293.15 K	3.55	3.67	3.82	3.99	4.16	4.36	4.59	4.85	5.14
303.15 K	2.81	2.9	3.01	3.13	3.26	3.41	3.58	3.76	3.97
313.15 K	2.27	2.35	2.43	2.52	2.63	2.74	2.86	3	3.16
323.15 K	1.88	1.94	2.01	2.08	2.16	2.25	2.34	2.45	2.57
